What was measured:
sPHEX = molecular target: T1, sPHEX (Homo sapiens, UniProt P78562); experiment: Protection of PHEX substrate PTHrP107-139 from sPHEX degradation (RP-HPLC); type: biochemical; details: 1×10^−5 M inhibitor, 15 min preincubation, 30 min at 37° C.
T1 construct: The soluble form of the metallopeptidase PHEX (sPHEX) was purified to homogeneity; made in house
T1 sequence (P78562 53-749 limits assumed): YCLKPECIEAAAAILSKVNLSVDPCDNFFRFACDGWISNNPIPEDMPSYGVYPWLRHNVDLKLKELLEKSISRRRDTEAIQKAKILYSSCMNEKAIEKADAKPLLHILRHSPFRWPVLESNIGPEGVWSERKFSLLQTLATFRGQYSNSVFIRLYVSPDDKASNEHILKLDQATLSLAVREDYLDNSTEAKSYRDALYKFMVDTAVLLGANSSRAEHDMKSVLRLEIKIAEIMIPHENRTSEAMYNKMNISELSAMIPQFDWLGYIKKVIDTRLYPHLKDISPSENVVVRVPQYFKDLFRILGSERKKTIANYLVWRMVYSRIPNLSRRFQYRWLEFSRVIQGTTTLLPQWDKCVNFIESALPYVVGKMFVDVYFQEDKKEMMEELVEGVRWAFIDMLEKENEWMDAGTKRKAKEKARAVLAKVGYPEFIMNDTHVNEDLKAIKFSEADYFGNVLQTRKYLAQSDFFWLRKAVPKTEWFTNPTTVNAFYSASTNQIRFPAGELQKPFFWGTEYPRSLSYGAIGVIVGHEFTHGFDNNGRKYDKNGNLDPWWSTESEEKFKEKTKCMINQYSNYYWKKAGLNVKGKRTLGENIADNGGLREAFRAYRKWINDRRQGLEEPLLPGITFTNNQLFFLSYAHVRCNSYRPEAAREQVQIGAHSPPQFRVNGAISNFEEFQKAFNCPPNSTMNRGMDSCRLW
Method: In general, in order to show inhibition of sPHEX, the enzyme is incubated in the absence or the presence of the inhibiting compound, and a substrate is added in conditions that are suitable for sPHEX enzymatic activity. Hydrolysis of the substrate in the absence or the presence of the inhibiting compound is monitored.
For example, 1.0 μg of purified sPHEX was first incubated at 37° C. for 15 min with or without 1×10^−5M of compound MH-2-64C (FIG. 1) in 90 μl 50 mM MES (2-(N-morpholino) ethanesulfonic acid) pH 6.5, 150 mM NaCl. Then, 2.5 μg of peptide PTHrP107-139 in 10 μl of the same buffer were added and the incubation continued for 30 min. The reaction mixture also contained 1.3 μg of the amino acid Phe which was used as an internal standard. After the incubation period, the reaction was stopped by the addition of EDTA to a final concentration of 5 mM. Detection of cleavage products was performed by reverse phase high performance liquid chromatography (RP-HPLC) on a C18 μBondapak™ analytical column (Waters, Mississauga, ON, Canada) with a UV detector set at 220 nm. […] Results were quantified by comparing the area under the undigested peak of PTHrP107-139, after normalization for the amount of Phe present in the sample.

[1] = tested on: primary rat calvaria osteoblasts; experiment: Mineralization by 45Ca incorporation in cultured rat calvaria osteoblasts; type: cell-based; details: fetal rat calvaria cells
Method: In general, to show stimulation of mineralization in cultured cells by PHEX inhibitors, cells of osteoblast lineage are incubated in conditions that favors the mineralization process in the absence and the presence of the PHEX inhibiting compound. This cellular model is used to study osteoblasts proliferation and differentiation, and to follow the mineralization process.
Mineralization can be monitored by standard techniques such as von Kossa staining or ^45Ca incorporation in the extracellular matrix.
For example, cells were enzymatically isolated from the calvaria of 21-day old Wistar rat fetuses by sequential digestion with collagenase as described previously (Bellows et al., 1986). Cells obtained from the last four of the five digestion steps were plated in T-75 flasks in α-MEM containing 15% FBS (Cansera) and antibiotics comprising 100 μg/ml penicillin G (Sigma-Aldrich), 50 μg/ml gentamycin (Life Technologies), and 0.3 μg/ml fungizone (Life Technologies). […]
At day 18, 21 and 25 of rat calvaria osteoblasts culture, mineralization was determined by ^45Ca incorporation assay as described previously (Ecarot et Desbarats, 1999). […] Cell layers were solubilized in 12.5% trichloroacetic acid and aliquots counted for radioactivity.

In the case of `O=C(O)CC(CC(=O)NO)C(=O)NCCc1ccc(-c2ccccc2)cc1` (stereo not drawn) [Example 126, 3-(2-Biphenyl-4-yl-ethylcarbamoyl)4-hydroxycarbamoyl-butyric acid], the “degradation of PTHrP107-139 by sPHEX” value (sPHEX) is reported as “fully prevented”, the “45Ca incorporation by the cells (mineralization)” value ([1]; 1×10^−5 M (high dose)) is reported as “reduced significantly” and the “45Ca incorporation by the cells (mineralization)” value ([1]; lower concentrations, low dose (10^−6 M)) is reported as “significantly stimulated”.

Source: patent US20060135480A1, “Derivatives of succinic and glutaric acids and analogs thereof useful as inhibitors of phex” (Enobia Pharma, priority 2002, published 2006)
